According to patent US20250255847A1, “[…]s: Novel Drugs for Triple Negative Breast Cancer” (SIMMARON RSEARCH INC, priority 2024, published 2025):

Experiments:
[1] = system: tumor burden; settings: in vivo; cited from earlier work
[2] = system: TNBC cells; settings: cited from earlier work
[3] = target: T1, STAT3 (Homo sapiens, UniProt P40763); settings: read-out: IC50 as STAT3 inhibitor; cited from earlier work
Target sequence in this assay (P40763 whole entry, species assumed): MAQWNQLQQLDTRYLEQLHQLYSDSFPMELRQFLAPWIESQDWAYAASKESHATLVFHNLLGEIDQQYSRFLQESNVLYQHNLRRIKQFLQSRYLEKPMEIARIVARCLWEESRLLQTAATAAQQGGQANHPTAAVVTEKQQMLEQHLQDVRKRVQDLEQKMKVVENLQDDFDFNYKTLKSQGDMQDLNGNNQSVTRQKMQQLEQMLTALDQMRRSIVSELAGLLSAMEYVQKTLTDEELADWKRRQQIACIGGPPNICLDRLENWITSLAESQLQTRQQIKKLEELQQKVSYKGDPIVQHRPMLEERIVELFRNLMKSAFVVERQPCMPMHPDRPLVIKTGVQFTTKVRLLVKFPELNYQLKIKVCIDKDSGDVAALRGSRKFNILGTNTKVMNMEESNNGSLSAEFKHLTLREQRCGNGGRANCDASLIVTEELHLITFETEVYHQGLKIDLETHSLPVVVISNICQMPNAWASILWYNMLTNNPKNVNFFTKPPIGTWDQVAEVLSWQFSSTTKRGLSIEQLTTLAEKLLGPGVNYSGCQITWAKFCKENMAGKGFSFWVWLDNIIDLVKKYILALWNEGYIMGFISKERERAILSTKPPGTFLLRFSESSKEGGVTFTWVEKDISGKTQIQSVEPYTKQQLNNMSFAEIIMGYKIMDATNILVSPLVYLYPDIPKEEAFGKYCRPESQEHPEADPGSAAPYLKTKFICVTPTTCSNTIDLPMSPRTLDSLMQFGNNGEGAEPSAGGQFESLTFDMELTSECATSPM

[4] = target: T2, full-length STAT5b protein (Homo sapiens, UniProt P51692); experiment: Protein thermal shift binding assay with STAT5b; settings: increasing doses
T2 construct: full-length STAT5b protein melting was assessed with (J) SIM-1, (K) SIM-2, and (L) stattic
T2 sequence (P51692 1-787): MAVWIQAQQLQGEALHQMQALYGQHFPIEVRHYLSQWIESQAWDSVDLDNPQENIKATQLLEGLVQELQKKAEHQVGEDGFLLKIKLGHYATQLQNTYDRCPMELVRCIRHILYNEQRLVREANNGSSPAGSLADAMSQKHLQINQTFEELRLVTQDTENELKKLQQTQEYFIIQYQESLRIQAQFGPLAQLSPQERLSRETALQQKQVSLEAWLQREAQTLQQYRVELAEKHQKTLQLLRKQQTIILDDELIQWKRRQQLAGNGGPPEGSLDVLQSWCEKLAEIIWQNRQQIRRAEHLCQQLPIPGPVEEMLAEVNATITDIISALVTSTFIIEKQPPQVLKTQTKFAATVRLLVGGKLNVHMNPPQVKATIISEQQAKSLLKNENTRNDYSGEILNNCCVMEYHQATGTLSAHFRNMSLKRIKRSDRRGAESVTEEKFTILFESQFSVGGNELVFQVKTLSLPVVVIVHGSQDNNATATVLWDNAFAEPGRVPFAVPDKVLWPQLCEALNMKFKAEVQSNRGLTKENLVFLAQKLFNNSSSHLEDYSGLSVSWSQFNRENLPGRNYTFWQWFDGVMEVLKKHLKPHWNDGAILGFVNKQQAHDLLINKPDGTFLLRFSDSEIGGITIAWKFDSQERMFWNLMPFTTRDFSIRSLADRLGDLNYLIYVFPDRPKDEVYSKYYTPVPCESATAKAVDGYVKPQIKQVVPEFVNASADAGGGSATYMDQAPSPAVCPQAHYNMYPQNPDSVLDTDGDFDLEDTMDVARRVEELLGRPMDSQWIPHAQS
Procedure: (§1) FIG. 5 illustrates an embodiment of the present invention and illustrates evaluations of SIM-1 and SIM-2 as STAT3 inhibitors. (A) Protein thermal shift assay was performed to assess the melting of purified recombinant STAT3 (blue; 0.5 μg protein) (Tm=melting temperature=68.88° C.). The representative melting curves were derived after adding SIM-1 (red; 4 nM), SIM-2 (purple; 8 nM), and positive control stattic (grey; 20 nM) to the STAT3 protein. The differences of melting temperature (ΔTm) between pure protein and protein+ligands are −4.54° C., −4.16° C., and 0.39° C. for SIM-1, SIM-2, and stattic (ΔTm^cut-off>2° C.). (B) Phospho protein array analysis was conducted in cell lysates of MDA-MB-468 cells treated with DMSO control (top left), 25 ng/mL EGF (top right), EGF+10 nM SIM-1 (bottom left), and EGF+SIM-2 (bottom right) for 24 hrs. Each colored arrowhead represents a specific phosphoprotein, and the description was added in the bottom of array images. S=serine and Y=tyrosine. Relative levels of (C) Tyrosine 705 (Y705) phosphorylated STAT3, (D) Serine 727 (S727) phosphorylated STAT3, (E) Tyrosine 693 (Y693) phosphorylated STAT4, (F) Tyrosine 694 ([…]) phosphorylated STAT5A had been derived after normalizing the spot densities (n=5) with respective β-actin spots. Results are mean±SD of five different spot analyses. One-way ANOVA was adopted to test the significance of mean between groups at **p<0.01, and ****p<0.0001. Ns=no significance. Thermal shift assays of increasing doses of (G) SIM-1, (H) SIM-2, and (I) stattic with purified STAT1 protein (0.5 μg protein). The respective ΔTm values were given with the plot after matching with the color code. Similarly, full-length STAT5b protein melting was assessed with (J) SIM-1, (K) SIM-2, and (L) stattic. Results are confirmed after three different experiments.
(§2) To confirm the result, PTS assay of STAT1 with SIM-1 (FIG. 5G), SIM-2 (FIG. 5H), and stattic (FIG. 5I) was performed. […] Similar results were observed while performing the binding assay with STAT5b.

[5] = target: T3, purified STAT1 protein (Homo sapiens, UniProt P42224); experiment: Protein thermal shift (PTS) assay of STAT1; assay type: binding; settings: 10 and 20 μM
T3 sequence (P42224 1-750): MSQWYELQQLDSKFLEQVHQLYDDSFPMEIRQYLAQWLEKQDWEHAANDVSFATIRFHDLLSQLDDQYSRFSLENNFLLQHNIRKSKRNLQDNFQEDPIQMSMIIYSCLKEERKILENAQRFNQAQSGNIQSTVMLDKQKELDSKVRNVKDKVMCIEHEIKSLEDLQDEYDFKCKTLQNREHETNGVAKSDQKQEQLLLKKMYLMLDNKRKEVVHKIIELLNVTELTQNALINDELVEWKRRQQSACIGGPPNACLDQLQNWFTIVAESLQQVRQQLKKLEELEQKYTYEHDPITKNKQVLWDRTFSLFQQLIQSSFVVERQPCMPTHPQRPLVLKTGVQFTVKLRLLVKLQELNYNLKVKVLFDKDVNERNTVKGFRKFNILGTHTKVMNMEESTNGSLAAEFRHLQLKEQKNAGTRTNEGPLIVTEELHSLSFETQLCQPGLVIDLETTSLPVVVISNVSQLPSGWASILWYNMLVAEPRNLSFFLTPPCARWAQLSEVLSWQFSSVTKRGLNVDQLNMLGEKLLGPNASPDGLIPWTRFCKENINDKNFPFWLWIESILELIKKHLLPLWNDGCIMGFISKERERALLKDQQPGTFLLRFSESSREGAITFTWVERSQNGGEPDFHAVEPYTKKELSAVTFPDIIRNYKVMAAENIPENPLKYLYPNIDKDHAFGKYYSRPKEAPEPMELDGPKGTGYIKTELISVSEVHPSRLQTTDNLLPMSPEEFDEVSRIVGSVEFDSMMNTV
Procedure: as §1, §2

[6] = target: T1, STAT3; experiment: Protein thermal shift assay with recombinant STAT3; assay type: binding; parameters: purchased Active motif 81095
Procedure: as §1
Target sequence in this assay (P40763 whole entry): as the sequence (P40763 whole entry, species assumed) above
FIG. 6 illustrates an embodiment of the present invention and illustrates dose-dependent curves of maximum fluorescence for SIM1 and SIM2. Protein thermal shift assay of recombinant STAT3 was performed with increasing doses of (A) SIM-1, (B) SIM-2, and (C) positive control “Stattic”. The maximum fluorescence for each dose was derived and then plotted in GraphPad Prism software with respective doses. The resultant non-liner hyperbolic curves provide half-maximal binding (EC50) for all three compounds.
This example provides a representative study of the present disclosure to test if SIM1 and SIM2 served as ligands of STAT3. Therefore, the present invention adopted a protein thermal shift assay in which […] of recombinant human STAT3 protein (active motif) was incubated with increasing doses of SIM1 and SIM2 followed by the execution of melting analysis starting from 25 to 95° C. as described elsewhere.

NC(=O)CC[C@H](NC(=O)[C@@H]1CC[C@@H]2CCN(C(=O)CCCCCC#Cc3cccc4c3CN(C3CCC(=O)NC3=O)C4=O)C[C@H](NC(=O)c3cc4cc(C(F)(F)P(=O)(O)O)ccc4[nH]3)C(=O)N21)C(=O)NC(c1ccccc1)c1ccccc1 (stereo partly drawn) [SD36]
dose effectively reducing tumor burden [1]: 25-50 mg/Kg body weight (bwt)
CT50 [2]: micromolar range

O=[N+]([O-])c1ccc2c(c1)S(=O)(=O)C=C2 [stattic, reference compound]
IC50 [3]: 5 µM
shift in the melting curve of STAT5b [4]: unable to produce any significant shift
shift in the melting curve of STAT1 [5]: did not produce any shift
CT50 [2]: micromolar range
doses causing apoptosis of TNBC tumors [2]: 10 to 20 µM
ΔTm of STAT3 ([6]; 20 nM ligand, cut-off 2° C.): 0.39 °C
EC50 ([6]; non-linear hyperbolic binding curve, read-out: EC50 (half-maximal binding, maximum fluorescence versus dose)): ~2 µM
